In article PMC5982655, “Interaction of the New Monofunctional Anticancer Agent Phenanthriplatin With Transporters for Organic Cations” (Frontiers in Chemistry, 2018):
“Also recorded” adds a separate entry of the source.

Key:
hMATE1 = target: T1, hMATE1 (Homo sapiens, UniProt Q96FL8); assay: Inhibition of ASP+ uptake in HEK 293 cells expressing hMATE1; type: cell-based; details: HEK 293 hMATE1, 10 μM ASP+
T1 construct: expressed in transfected cells
T1 sequence (Q96FL8 1-570): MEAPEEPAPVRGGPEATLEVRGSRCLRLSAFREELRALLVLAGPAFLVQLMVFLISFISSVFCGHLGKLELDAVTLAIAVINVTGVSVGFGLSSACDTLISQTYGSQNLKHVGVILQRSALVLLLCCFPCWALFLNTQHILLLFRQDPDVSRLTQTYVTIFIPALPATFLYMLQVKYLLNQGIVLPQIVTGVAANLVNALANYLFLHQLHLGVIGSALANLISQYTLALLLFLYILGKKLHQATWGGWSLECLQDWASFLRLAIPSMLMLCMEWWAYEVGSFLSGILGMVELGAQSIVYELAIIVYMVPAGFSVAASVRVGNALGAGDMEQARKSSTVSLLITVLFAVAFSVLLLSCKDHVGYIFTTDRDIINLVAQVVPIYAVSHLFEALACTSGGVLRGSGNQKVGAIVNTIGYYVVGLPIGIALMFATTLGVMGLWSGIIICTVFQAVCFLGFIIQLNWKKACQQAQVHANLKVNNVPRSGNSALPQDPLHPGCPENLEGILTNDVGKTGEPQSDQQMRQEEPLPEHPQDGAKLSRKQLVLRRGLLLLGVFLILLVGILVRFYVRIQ
Procedure: The interaction of phenanthriplatin with transporters for organic cations (OCT1-3, MATE1, and MATE2K) was investigated by measuring its effects on the uptake of the fluorescent organic cation 4-(4-dimethylamino)styryl-N-methylpyridinium (ASP^+). Microfluorometric measurements of ASP^+ uptake were performed with a fluorescence plate reader (Infinity 200, Tecan, Crailsheim, Germany; excitation at 465 nm, emission at 590 nm) as described previously for cultured HEK 293 cells (Wilde et al., [2009]). Before measurements, the culture medium in the wells of the 96 well microtiter plate containing HEK 293 cells was replaced by a HCO3- -free Ringer-like solution containing (in mM) NaCl 145, K2HPO4 1.6, KH2PO4 0.4, D-glucose 5, MgCl2 1, calcium gluconate 1.3, and pH adjusted to 7.4. Fluorescence was measured dynamically at 37°C in each well before and after ASP^+ addition to HCO3- -free Ringer-like solution, alone or together with increasing phenanthriplatin concentrations, and plotted versus time. ASP^+ (final concentration 1 or 10 μM for experiments with OCTs or MATEs, respectively) was added after the third sampling interval. Emission from the complete area of the well bottom was analyzed four times and averaged for each well. […] Background fluorescence was measured for each plate in wells with identical solutions containing no cells and subtracted from each well containing cells. Experiments were performed with cells from one passage of the same day with controls and test replicates in the same plate.
(§1) Data are presented as mean values ± SEM, with (n) referring to the number of wells. IC50 values defined as the concentration of platinum agent required to inhibit uptake of ASP^+ by 50% and EC50 values used to assess cell viability were obtained by sigmoidal concentration-response curve fitting using GraphPad Prism, Version 5.3 (GraphPad Software, San Diego, USA). […] For multiple comparisons, ANOVA with Bonferroni post-test was used. A P-value < 0.05 was considered statistically significant.

HEK 293 hOCT2 cells = assay: MTT cell viability, HEK 293 hOCT2 cells; type: cell-based, human; details: 10 min
Procedure: (§2) A modified 3-(4,5-dimethylthiazol-2-yl)-2,5-diphenyltetrazolium bromide (MTT) assay (Mosmann, [1983]) was used to test the chemosensitivity of cells to phenanthriplatin and, in some experiments, to cisplatin by determining the glycolysis rate via the reduction of the yellow tetrazolium salt MTT to a purple formazan dye, as previously described (Wehe et al., [2014]). Briefly, after growing for 24 h in the incubator, cells expressing or not hOCT2, hMATE1, hMATE2 or Ctr1 were treated for 10 min with platinum derivatives. Control cells were incubated with drug-free complete cell culture medium. Afterwards, the medium was carefully removed and replaced by 200 μL of fresh complete cell culture medium. After incubation for another 24 h, 10 μL of MTT solution containing 5 mg/mL of the dye were added to each well, and the cells were again incubated for 3 h. The medium was then removed and 100 μL of lysis buffer containing 10% (w/v) sodium dodecyl sulfate and 40% (v/v) dimethylformamide was added to each well. The plates were shaken for 10 min to destroy the cell structure and dissolve the blue formazan dye (Furchert et al., [2007]; Wehe et al., [2014]). Finally, the absorbance was measured at 590 nm using an automated microtiter plate reader (Infinite M200; Tecan, Männedorf, Switzerland). The percentage of viable cells in the untreated controls was compared to that for the various treatments. Experiments carried out with DAOY and UW228 cells followed a similar protocol except that these cells were incubated for 24 h with phenanthriplatin.

UW228 cells = assay: MTT cell viability, UW228 medulloblastoma cells; type: cell-based
Procedure: as §2, §1

HEK293 hMATE2K cells = assay: MTT cell viability, HEK293 hMATE2K cells; type: cell-based, human; details: 100 μM phenanthriplatin
Procedure: as §2, with “Experiments carried out with DAOY and UW228 cells followed a similar protocol except that these cells were incubated for 24 h with phenanthriplatin.” left out

HEK293 hMATE1 cells = assay: MTT cell viability, HEK293 hMATE1 cells; type: cell-based, human; details: HEK293 hMATE1, 100 μM phenanthriplatin
Procedure: as §2, with “Experiments carried out with DAOY and UW228 cells followed a similar protocol except that these cells were incubated for 24 h with phenanthriplatin.” left out

DAOY cells = assay: MTT cell viability, DAOY medulloblastoma cells; type: cell-based
Procedure: as §2, §1

N.N.[Cl][Pt+].c1ccc2c(c1)cnc1ccccc12 [phenanthriplatin, cis-[Pt(NH3)2Cl(phenanthridine)]^+]
IC50 (hMATE1): 101000 nM | logIC50 (logEC50) ± SEM for inhibition of ASP+ uptake (hMATE1): −3.99 ± 0.21 | Cell viability (MTT) (HEK 293 hOCT2 cells; HEK 293 hOCT2, 10 μM phenanthriplatin + 100 μM cimetidine): reduced upon co-incubation of phenanthriplatin with cimetidine | Cell viability (MTT) (HEK 293 hOCT2 cells; HEK 293 hOCT2, 10 μM phenanthriplatin): significant phenanthriplatin toxicity | Protection from phenanthriplatin toxicity by cimetidine (cell viability, MTT) (UW228 cells; UW228, 24 h, 3 μM phenanthriplatin + 10-fold higher cimetidine): not in UW228 cells | EC50 (UW228 cells; UW228, 24 h incubation, MTT): 2800 nM | logEC50 ± SEM for viability (UW228 cells; UW228, 24 h incubation, MTT): −5.55 ± 0.03 | Cell viability (MTT) (HEK293 hMATE2K cells): induces significant cell toxicity | Cell viability (MTT) (HEK293 hMATE1 cells): induces significant cell toxicity | Protection from phenanthriplatin toxicity by cimetidine (cell viability, MTT) (DAOY cells; 24 h, 1 μM phenanthriplatin + 10-fold higher cimetidine): efficaciously protected against phenanthriplatin toxicity by cimetidine; also recorded: significantly decreased the toxicity of this compound in DAOY | EC50 (DAOY cells; 24 h incubation, MTT): 900 nM | logEC50 ± SEM for viability (DAOY cells; 24 h incubation, MTT): −6.05 ± 0.02
